Measurements taken from patent US20060111381A1, “Amidine compounds” (priority 2002, published 2006).
Several values for one entry are separate records, joined by “and”; a condition that tells them apart may be missing. Identical values can stand only once.

What was measured:
ICR mice [1] = assay: Straub tail behaviour (indicator of CNS activity) in writhing-study mice; conditions: any doses (1 to 128 mg/kg IP)
ICR mice [2] = assay: Phenylquinone-induced writhing model in mice (writhes counted in following 5-10 minute period); format: in vivo; conditions: for No. of Writhings, Individual: individual mice; for % Inhibition: relative to vehicle group
Protocol: (§1) Testing on compound KRS-6-48 was carried out under contract by MDS Services—Taiwan Ltd. KRS-6-48 was evaluated for possible analgesic activity in the phenylquinone-induced writhing model in mice (Siegmund et al, 1957). A serial 2-fold dosage variance was used in the test, from 128 mg/kg to 1 mg/kg (8 doses in total). Groups of 3 male or female ICR mice weighing 22±2 g were employed. Variant doses (1, 2, 4, 8, 16, 32, 64 and 128 mg/kg) of test substances were administered intraperitoneally (IP). A vehicle of 2% Tween 80 in 0.9% NaCl was used for the intraperitoneal injection. The control group received vehicle alone. […] A reduction in the number of writhes by 50 percent or more (≧50%) relative to the vehicle-treated group indicated possible analgesic activity.
Testing on compounds KRS-6-41, KRS-6-51, and KRS-6-71 was also carried out under contract by MDS Services—Taiwan Ltd. The study was designed to evaluate the effects of the compounds as analgesics in the phenylquinone-induced writhing assay described in detail in Example 10 (Siegmund et al, 1957).
as §1, with “In each case, a” for “Testing on compound KRS-6-48 was carried out under contract by MDS Services—Taiwan Ltd. KRS-6-48 was evaluated for possible analgesic activity in the phenylquinone-induced writhing model in mice (Siegmund et al, 1957). A”

## CCC(=Nc1ccccc1CC)NCCCN1CC[C@]23c4c5ccc(O)c4O[C@H]2[C@@H](O)C=CC3[C@H]1C5 (stereo partly drawn) [KRS-6-71, (5α,6α)-7,8-didehydro-4,5-epoxy-17-((N-(2-ethylphenyl)propionamidino)-propyl)morphinan, 3,6-diol]
ICR mice [1]
  Straub tail behaviour: None of the test animals exhibited Straub tail behaviour
ICR mice [2]; 1 mg/kg IP
  No. of Writhings, Average: 18
  No. of Writhings, Individual: 24 and 13 and 18
  % Inhibition: 22%
ICR mice [2]; 2 mg/kg IP
  No. of Writhings, Average: 14
  No. of Writhings, Individual: 2 and 12 and 18
  % Inhibition: 39%
ICR mice [2]; 4 mg/kg IP
  No. of Writhings, Average: 11
  No. of Writhings, Individual: 16 (2×) and 2
  % Inhibition: 52%
ICR mice [2]; 8 mg/kg IP
  No. of Writhings, Average: 11
  No. of Writhings, Individual: 0 and 18 and 15
  % Inhibition: 52%
ICR mice [2]; 16 mg/kg IP
  No. of Writhings, Average: 7
  No. of Writhings, Individual: 13 and 0 and 8
  % Inhibition: 70%
ICR mice [2]; 32 mg/kg IP
  No. of Writhings, Average: 7
  No. of Writhings, Individual: 6 and 0 and 15
  % Inhibition: 70%
ICR mice [2]; 64 mg/kg IP
  No. of Writhings, Average: 1
  No. of Writhings, Individual: 0 (2×) and 3
  % Inhibition: 96%
ICR mice [2]; 128 mg/kg IP
  No. of Writhings, Average: 0
  No. of Writhings, Individual: 0
  % Inhibition: 100%
other
  melting point: 58 to 59 °C
